Assay results taken from PubChem BioAssay AID190 (DTP/NCI, 2004).
Where “and” joins values, the source holds several entries; their conditions need not be identical. Identical values can stand only once. Inconclusive results and toxic doses are left out.

Test system: AKR/Lw mice, AKR lymphoma ip, median survival T/C
Test: NCI In Vivo Anticancer Drug Screen. Data for tumor model Lymphoma AKR (Transplanted) (intraperitoneal) in AKR/Lw mice
Conditions: endpoint: median survival time, higher = longer survival
Procedure: The antitumor activity of compounds was measured in mice bearing transplantable tumors. Survival or tumor size were measured and the results are expressed as the measurement made in the treated group (T) divided by the measurement made in the vehicle treated control group (C). The tumor model used in this assay is Lymphoma AKR (Transplanted) (intraperitoneal) in AKR/Lw mice

[1] = dose: 100.0 mg/kg/injection, schedule: Q01DX001 (ip), vehicle: Klucel (hydroxypropylcellulose) (HPC)
[2] = dose: 100.0 mg/kg/injection, schedule: Q04DX003 (ip), vehicle: Klucel (hydroxypropylcellulose) (HPC)
[3] = dose: 200.0 mg/kg/injection, schedule: Q01DX001 (ip), vehicle: Klucel (hydroxypropylcellulose) (HPC)
[4] = dose: 200.0 mg/kg/injection, schedule: Q04DX003 (ip), vehicle: Klucel (hydroxypropylcellulose) (HPC)
[5] = dose: 400.0 mg/kg/injection, schedule: Q04DX003 (ip), vehicle: Klucel (hydroxypropylcellulose) (HPC)
[6] = dose: 100.0 mg/kg/injection, schedule: Q01DX001 (ip), vehicle: saline
[7] = dose: 200.0 mg/kg/injection, schedule: Q01DX001 (ip), vehicle: saline
[8] = dose: 400.0 mg/kg/injection, schedule: Q01DX001 (ip), vehicle: Klucel (hydroxypropylcellulose) (HPC)
[9] = dose: 400.0 mg/kg/injection, schedule: Q01DX001 (ip), vehicle: saline
[10] = dose: 25.0 mg/kg/injection, schedule: Q01DX001 (ip), vehicle: saline
[11] = dose: 50.0 mg/kg/injection, schedule: Q01DX001 (ip), vehicle: saline
[12] = dose: 75.0 mg/kg/injection, schedule: Q04DX003 (ip), vehicle: saline
[13] = dose: 150.0 mg/kg/injection, schedule: Q04DX003 (ip), vehicle: saline
[14] = dose: 50.0 mg/kg/injection, schedule: Q04DX003 (ip), vehicle: Klucel (hydroxypropylcellulose) (HPC)

Compound: c1cc2cc3c(cc2c2c1CC1c4cc5c(cc4CCN1C2)OCO5)OCO3 (stereo unspecified)
- T/C [1]: 102 % of control
- T/C [2]: 103 % of control
- T/C [3]: 97 % of control
- T/C [4]: 96 % of control
- T/C [5]: 92 % of control

Compound: C1CCN2CC3CC(CN4CCCCC34)C2C1 (stereo unspecified)
- T/C (dose: 10.0 mg/kg/injection, schedule: Q01DX001 (ip), vehicle: saline): 100 % of control
- T/C (dose: 20.0 mg/kg/injection, schedule: Q01DX001 (ip), vehicle: saline): 100 % of control
- T/C (dose: 40.0 mg/kg/injection, schedule: Q01DX001 (ip), vehicle: saline): 100 % of control

Compound: O=C(O)/C=C/C(=O)Nc1cccc(Oc2ccc([N+](=O)[O-])cc2[N+](=O)[O-])c1
- T/C [6]: 91 % of control
- T/C [7]: 103 % of control

Compound: COc1cc2c(cc1OC)C(C#N)C2 (stereo unspecified)
- T/C [1]: 100 % of control
- T/C [3]: 100 % of control
- T/C [8]: 94 % of control

Compound: O=[N+]([O-])c1ccc(OCc2ccc(S(=O)(=O)F)c(Cl)c2)c(Cl)c1
- T/C (dose: 3.0 mg/kg/injection, schedule: Q01DX009 (ip), vehicle: Klucel (hydroxypropylcellulose) (HPC)): 104 % of control
- T/C (dose: 6.0 mg/kg/injection, schedule: Q01DX009 (ip), vehicle: Klucel (hydroxypropylcellulose) (HPC)): 88 % of control
- T/C (dose: 12.0 mg/kg/injection, schedule: Q01DX009 (ip), vehicle: Klucel (hydroxypropylcellulose) (HPC)): 95 % of control
- T/C (dose: 12.5 mg/kg/injection, schedule: Q01DX009 (ip), vehicle: Klucel (hydroxypropylcellulose) (HPC)): 100 % of control
- T/C [1]: 97 % of control
- T/C [2]: 90 % of control
- T/C [3]: 97 % of control
- T/C [4]: 88 % of control
- T/C [8]: 90 % of control
- T/C [5]: 90 % of control

Compound: NC(Cc1ccc([N+](=O)[O-])cc1)C(=O)O (stereo unspecified)
- T/C [6]: 94 % of control
- T/C [7]: 96 % of control

Compound: Cc1cnc2c(=N)n(C(=O)C(F)(F)F)n(C)c2n1
- T/C [6]: 89 % of control
- T/C [7]: 100 % of control
- T/C [9]: 92 % of control

Compound: O=C(COc1ccc(Cl)c(Cl)c1)N(Cc1ccccc1)Cc1cccnc1
- T/C [1]: 110 % of control
- T/C [3]: 108 % of control
- T/C [8]: 102 % of control

Compound: CC(CN1CC(=O)NC(=O)C1)N1CC(=O)NC(=O)C1 (stereo unspecified)
- T/C (dose: 0.5 mg/kg/injection, schedule: Q01DX009 (ip), vehicle: saline): 103 % of control
- T/C (dose: 1.6 mg/kg/injection, schedule: Q01DX009 (ip), vehicle: saline): 116 % of control
- T/C (dose: 2.0 mg/kg/injection, schedule: Q01DX009 (ip), vehicle: saline): 109 % of control
- T/C (dose: 2.5 mg/kg/injection, schedule: Q01DX009 (ip), vehicle: saline): 90 % of control
- T/C (dose: 3.1 mg/kg/injection, schedule: Q01DX009 (ip), vehicle: saline): 110 % of control and 113 % of control
- T/C (dose: 4.0 mg/kg/injection, schedule: Q01DX009 (ip), vehicle: saline): 181 % of control
- T/C (dose: 5.0 mg/kg/injection, schedule: Q01DX009 (ip), vehicle: saline): 106 % of control
- T/C (dose: 10.0 mg/kg/injection, schedule: Q01DX009 (ip), vehicle: saline): 120 % of control
- T/C (dose: 12.5 mg/kg/injection, schedule: Q04DX003 (ip), vehicle: saline): 88 % of control and 90 % of control
- T/C (dose: 20.0 mg/kg/injection, schedule: Q01DX009 (ip), vehicle: saline): 150 % of control
- T/C [10]: 94 % of control
- T/C (dose: 25.0 mg/kg/injection, schedule: Q04DX003 (ip), vehicle: saline): 105 % of control and 107 % of control
- T/C (dose: 30.0 mg/kg/injection, schedule: Q01DX009 (ip), vehicle: saline): 152 % of control
- T/C (dose: 35.0 mg/kg/injection, schedule: Q01DX009 (ip), vehicle: saline): 152 % of control
- T/C [11]: 97 % of control and 106 % of control
- T/C (dose: 50.0 mg/kg/injection, schedule: Q04DX003 (ip), vehicle: saline): 92 % of control and 100 % of control
- T/C [12]: 94 % of control
- T/C (dose: 150.0 mg/kg/injection, schedule: Q01DX001 (ip), vehicle: water): 108 % of control
- T/C [13]: 123 % of control
- T/C (dose: 200.0 mg/kg/injection, schedule: Q01DX009 (ip), vehicle: saline): 108 % of control
- T/C (dose: 300.0 mg/kg/injection, schedule: Q01DX009 (ip), vehicle: saline): 106 % of control
- T/C (dose: 300.0 mg/kg/injection, schedule: Q04DX003 (ip), vehicle: saline): 100 % of control
- T/C (dose: 400.0 mg/kg/injection, schedule: Q01DX009 (ip), vehicle: saline): 100 % of control
- T/C (dose: 600.0 mg/kg/injection, schedule: Q01DX001 (ip), vehicle: water): 111 % of control

Compound: COc1cc2c(cc1OC)[C@H]1CNC[C@H]1[C@@H](c1ccccc1)C2
- T/C [12]: 110 % of control
- T/C [6]: 105 % of control
- T/C [13]: 103 % of control
- T/C [7]: 100 % of control
- T/C [9]: 97 % of control

Compound: COc1cccc2c1C(=O)c1c(O)c3c(c(O)c1C2=O)C[C@@](O)(C(C)=O)C[C@@H]3OC1CC(N)C(O)C(C)O1 (stereo partly specified)
- T/C (dose: 0.02 mg/kg/injection, schedule: Q01DX015 (ip), vehicle: saline): 100 % of control
- T/C (dose: 0.05 mg/kg/injection, schedule: Q01DX010 (ip), vehicle: saline): 112 % of control
- T/C (dose: 0.05 mg/kg/injection, schedule: Q01DX015 (ip), vehicle: saline): 115 % of control
- T/C (dose: 0.1 mg/kg/injection, schedule: Q01DX010 (ip), vehicle: saline): 119 % of control
- T/C (dose: 0.1 mg/kg/injection, schedule: Q01DX015 (ip), vehicle: saline): 101 % of control and 110 % of control
- T/C (dose: 0.18 mg/kg/injection, schedule: Q01DX015 (ip), vehicle: saline): 106 % of control
- T/C (dose: 0.2 mg/kg/injection, schedule: Q01DX010 (ip), vehicle: saline): 122 % of control
- T/C (dose: 0.2 mg/kg/injection, schedule: Q01DX015 (ip), vehicle: saline): 106 % of control
- T/C (dose: 0.3 mg/kg/injection, schedule: Q01DX015 (ip), vehicle: saline): 99 % of control
- T/C (dose: 0.37 mg/kg/injection, schedule: Q01DX015 (ip), vehicle: saline): 121 % of control
- T/C (dose: 0.4 mg/kg/injection, schedule: Q01DX015 (ip), vehicle: saline): 103 % of control and 113 % of control

Compound: CCn1c(O)c(C=N)c(=O)[nH]c1=O
- T/C [11]: 102 % of control
- T/C [14]: 87 % of control
- T/C [6]: 94 % of control
- T/C [7]: 94 % of control
- T/C [4]: 93 % of control

Compound: CC(C)c1c[nH]c(=O)[nH]c1=O
- T/C (dose: 25.0 mg/kg/injection, schedule: Q04DX003 (ip), vehicle: Klucel (hydroxypropylcellulose) (HPC)): 97 % of control
- T/C [14]: 94 % of control
- T/C [2]: 94 % of control
- T/C [3]: 86 % of control
- T/C [8]: 92 % of control

Compound: CN(C)CCCc1c2ccccc2nc2ccc(Cl)cc12
- T/C (dose: 6.0 mg/kg/injection, schedule: Q01DX001 (ip), vehicle: saline): 100 % of control
- T/C (dose: 12.0 mg/kg/injection, schedule: Q01DX001 (ip), vehicle: saline): 103 % of control
- T/C [10]: 109 % of control

Compound: O=C1CCSCCN1
- T/C [6]: 95 % of control
- T/C [7]: 86 % of control
